# Reference: patent publication US7238689B2, “Isoxazoline derivative and herbicide comprising the same as active ingredient” (Ihara Chemical Industry Co., Ltd., priority 2001, dated 2007)
# Key:
# Format in all cases: in vivo
# Set-up in all cases: scale not given here
# [1] = tested on: Echinochloa oryzicola Vasing; assay: Herbicidal effect by paddy field soil treatment; conditions: wettable powder, active ingredient 1000 g/ha, examined at the 21st day from the treatment
# Procedure: (§1) A paddy field soil was filled in a plastic pot of 100 cm^2 and subjected to puddling. Then, seeds of Echinochloa oryzicola Vasing and Monochoria vaginalis (Murm. f.) Presl var. plantaginea (Roxb.) Solms-Laub. were sowed and water was filled in a depth of 3 cm. Next day, wettable powders produced in accordance with the Formulation 1 were diluted with water and dropped on the water surface. The application amount of each wettable powder was 1,000 g per 1 hectare in terms of the active ingredient. Then, breeding was made in a greenhouse, and the herbicidal effect of each wettable powder was examined at the 21st day from the treatment in accordance with the standard shown in Table 21.
# [2] = tested on: Monochoria vaginalis (Murm. f.) Presl var. plantaginea (Roxb.) Solms-Laub.; assay: Herbicidal effect by paddy field soil treatment; conditions: wettable powder, active ingredient 1000 g/ha, examined at the 21st day from the treatment
# Procedure: as §1
# [3] = tested on: Echinochloa crus-galli (L.) Beauv. var. crusgalli; assay: Herbicidal effect by upland field soil treatment; conditions: active ingredient 1000 g/ha, examined at 21st day from treatment
# Excerpt: (§2) An upland field soil was filled in a plastic pot of 80 cm^2. Seeds of Echinochloa crus-galli (L.) Beauv. var. crusgalli and Setaria viridis (L.) Beauv. were sowed, followed by covering with the same soil. […] Then, breeding was made in a greenhouse, and the herbicidal effect of each wettable powder was examined at the 21st day from the treatment in accordance with the standard shown in Table 21.
# [4] = tested on: Setaria viridis (L.) Beauv.; assay: Herbicidal effect by upland field soil treatment; conditions: active ingredient 1000 g/ha, examined at 21st day from treatment
# Excerpt: as §2
smiles,measurement,setting,value
CC1(C)CC(S(=O)(=O)Cc2c(Cl)sc(Cl)c2Cl)=NO1 [2-0006],"Herbicidal effect index, Echinochloa oryzicola Vasing",[1],5
same,"Herbicidal effect index, Monochoria vaginalis (Burm. F.) Presl var. plantaginea (Roxb.) Solms-Laub.",[2],5
same,"herbicidal effect (index per standard of Table 21), Echinochloa curs-galli (L.) Beauv. Var. crus-galli",[3],5
same,"herbicidal effect (index per standard of Table 21), Setaria viridis (L.) Beauv.",[4],4
CNC(=O)c1c(Cl)sc(Cl)c1CS(=O)(=O)C1=NOC(C)(C)C1 [2-0012],"Herbicidal effect index, Echinochloa oryzicola Vasing",[1],5
same,"Herbicidal effect index, Monochoria vaginalis (Burm. F.) Presl var. plantaginea (Roxb.) Solms-Laub.",[2],5
same,"herbicidal effect (index per standard of Table 21), Echinochloa curs-galli (L.) Beauv. Var. crus-galli",[3],5
same,"herbicidal effect (index per standard of Table 21), Setaria viridis (L.) Beauv.",[4],5
CC1(C)CC(S(=O)(=O)Cc2c(C(F)(F)F)n[nH]c2Cl)=NO1 [3-0034],"Herbicidal effect index, Echinochloa oryzicola Vasing",[1],5
same,"Herbicidal effect index, Monochoria vaginalis (Burm. F.) Presl var. plantaginea (Roxb.) Solms-Laub.",[2],5
same,"herbicidal effect (index per standard of Table 21), Echinochloa curs-galli (L.) Beauv. Var. crus-galli",[3],5
same,"herbicidal effect (index per standard of Table 21), Setaria viridis (L.) Beauv.",[4],5
Cn1nc(Cl)c(CS(=O)(=O)C2=NOC(C)(C)C2)c1C(F)(F)F [3-0040],"Herbicidal effect index, Echinochloa oryzicola Vasing",[1],5
same,"Herbicidal effect index, Monochoria vaginalis (Burm. F.) Presl var. plantaginea (Roxb.) Solms-Laub.",[2],5
same,"herbicidal effect (index per standard of Table 21), Echinochloa curs-galli (L.) Beauv. Var. crus-galli",[3],5
same,"herbicidal effect (index per standard of Table 21), Setaria viridis (L.) Beauv.",[4],5
Cn1nc(C(F)(F)F)c(CS(=O)(=O)C2=NOC(C)(C)C2)c1F [3-0041],"Herbicidal effect index, Echinochloa oryzicola Vasing",[1],5
same,"Herbicidal effect index, Monochoria vaginalis (Burm. F.) Presl var. plantaginea (Roxb.) Solms-Laub.",[2],5
same,"herbicidal effect (index per standard of Table 21), Echinochloa curs-galli (L.) Beauv. Var. crus-galli",[3],5
same,"herbicidal effect (index per standard of Table 21), Setaria viridis (L.) Beauv.",[4],5
Cn1nc(C(F)(F)F)c(CS(=O)(=O)C2=NOC(C)(C)C2)c1OC(C)(C)C [3-0047],"Herbicidal effect index, Echinochloa oryzicola Vasing",[1],5
same,"Herbicidal effect index, Monochoria vaginalis (Burm. F.) Presl var. plantaginea (Roxb.) Solms-Laub.",[2],5
same,"herbicidal effect (index per standard of Table 21), Echinochloa curs-galli (L.) Beauv. Var. crus-galli",[3],5
same,"herbicidal effect (index per standard of Table 21), Setaria viridis (L.) Beauv.",[4],5
Cn1nc(C(F)(F)F)c(CS(=O)(=O)C2=NOC(C)(C)C2)c1OC(F)F [3-0054],"Herbicidal effect index, Echinochloa oryzicola Vasing",[1],5
same,"Herbicidal effect index, Monochoria vaginalis (Burm. F.) Presl var. plantaginea (Roxb.) Solms-Laub.",[2],5
same,"herbicidal effect (index per standard of Table 21), Echinochloa curs-galli (L.) Beauv. Var. crus-galli",[3],5
same,"herbicidal effect (index per standard of Table 21), Setaria viridis (L.) Beauv.",[4],5
Cn1nc(C(F)(F)F)c(CS(=O)(=O)C2=NOC(C)(C)C2)c1OCc1ccccc1 [3-0059],"Herbicidal effect index, Echinochloa oryzicola Vasing",[1],5
same,"Herbicidal effect index, Monochoria vaginalis (Burm. F.) Presl var. plantaginea (Roxb.) Solms-Laub.",[2],5
same,"herbicidal effect (index per standard of Table 21), Echinochloa curs-galli (L.) Beauv. Var. crus-galli",[3],5
same,"herbicidal effect (index per standard of Table 21), Setaria viridis (L.) Beauv.",[4],5
Cn1nc(C(F)(F)F)c(CS(=O)(=O)C2=NOC(C)(C)C2)c1Oc1ccccc1 [3-0060],"Herbicidal effect index, Echinochloa oryzicola Vasing",[1],5
same,"Herbicidal effect index, Monochoria vaginalis (Burm. F.) Presl var. plantaginea (Roxb.) Solms-Laub.",[2],5
same,"herbicidal effect (index per standard of Table 21), Echinochloa curs-galli (L.) Beauv. Var. crus-galli",[3],5
same,"herbicidal effect (index per standard of Table 21), Setaria viridis (L.) Beauv.",[4],5
Cn1nc(C(F)(F)F)c(CS(=O)(=O)C2=NOC(C)(C)C2)c1S(=O)(=O)c1ccccc1 [3-0070],"Herbicidal effect index, Echinochloa oryzicola Vasing",[1],5
same,"Herbicidal effect index, Monochoria vaginalis (Burm. F.) Presl var. plantaginea (Roxb.) Solms-Laub.",[2],5
same,"herbicidal effect (index per standard of Table 21), Echinochloa curs-galli (L.) Beauv. Var. crus-galli",[3],4
same,"herbicidal effect (index per standard of Table 21), Setaria viridis (L.) Beauv.",[4],4
Cn1nc(-c2ccccc2)c(CS(=O)(=O)C2=NOC(C)(C)C2)c1Cl [3-0072],"Herbicidal effect index, Echinochloa oryzicola Vasing",[1],5
same,"Herbicidal effect index, Monochoria vaginalis (Burm. F.) Presl var. plantaginea (Roxb.) Solms-Laub.",[2],5
same,"herbicidal effect (index per standard of Table 21), Echinochloa curs-galli (L.) Beauv. Var. crus-galli",[3],5
same,"herbicidal effect (index per standard of Table 21), Setaria viridis (L.) Beauv.",[4],5
CC1(C)CC(S(=O)(=O)Cc2c(C(F)(F)F)nn(Cc3ccccc3)c2Cl)=NO1 [3-0087],"Herbicidal effect index, Echinochloa oryzicola Vasing",[1],5
same,"Herbicidal effect index, Monochoria vaginalis (Burm. F.) Presl var. plantaginea (Roxb.) Solms-Laub.",[2],5
same,"herbicidal effect (index per standard of Table 21), Echinochloa curs-galli (L.) Beauv. Var. crus-galli",[3],5
same,"herbicidal effect (index per standard of Table 21), Setaria viridis (L.) Beauv.",[4],5
CC1(C)CC(S(=O)(=O)Cc2c(Cl)nn(Cc3ccccc3)c2C(F)(F)F)=NO1 [3-0088],"Herbicidal effect index, Echinochloa oryzicola Vasing",[1],5
same,"Herbicidal effect index, Monochoria vaginalis (Burm. F.) Presl var. plantaginea (Roxb.) Solms-Laub.",[2],5
same,"herbicidal effect (index per standard of Table 21), Echinochloa curs-galli (L.) Beauv. Var. crus-galli",[3],5
same,"herbicidal effect (index per standard of Table 21), Setaria viridis (L.) Beauv.",[4],4
CC1(C)CC(S(=O)(=O)Cc2c(C(F)(F)F)nn(C3CCCCC3)c2Cl)=NO1 [3-0091],"Herbicidal effect index, Echinochloa oryzicola Vasing",[1],5
same,"Herbicidal effect index, Monochoria vaginalis (Burm. F.) Presl var. plantaginea (Roxb.) Solms-Laub.",[2],5
same,"herbicidal effect (index per standard of Table 21), Echinochloa curs-galli (L.) Beauv. Var. crus-galli",[3],5
same,"herbicidal effect (index per standard of Table 21), Setaria viridis (L.) Beauv.",[4],5
